{"source": "paper PMC7709710", "about": "(Investigational new drugs, 2015)", "key": {"[1]": {"assay": "Plasma and urine pharmacokinetics in patients", "assay_type": "in vivo, human"}, "[2]": {"system": "patients with advanced solid tumors", "details": "human, in vivo, 4 weeks"}, "Hsp70 mRNA": {"system": "Hsp70 mRNA", "assay": "Hsp70 mRNA by RT-PCR in paired tumor biopsies", "assay_type": "in vivo, human", "details": "one patient, dose level 3 (80 mg/m^2/dose), pre-dose vs day 17 of cycle 1"}, "Hsp27 mRNA": {"system": "Hsp27 mRNA", "assay": "Hsp27 mRNA by RT-PCR in paired tumor biopsies", "assay_type": "in vivo, human", "details": "one patient, dose level 3 (80 mg/m^2/dose), pre-dose vs day 17 of cycle 1"}, "patients": {"system": "patients", "details": "cited from earlier work"}, "human xenograft models": {"system": "human xenograft models", "details": "several human xenograft models; cited from earlier work"}, "Hsp90": {"target": "Hsp90", "details": "cited from earlier work"}, "advanced solid tumors": {"system": "advanced solid tumors", "assay": "Tumor response by RECIST 1.1", "assay_type": "in vivo, human"}, "Hsp70 protein": {"system": "Hsp70 protein", "assay": "Hsp70 protein in PBMCs by Western blot", "assay_type": "in vivo, human"}, "Hsp90 client proteins": {"system": "Hsp90 client proteins", "assay": "Reverse phase protein array", "assay_type": "in vivo, human"}, "[3]": {"details": "pre- to post-treatment, RP2D, subgroup 1 (patients 21, 22, 31)"}, "[4]": {"details": "pre- to post-treatment, RP2D, subgroup 2 (patients 28, 24, 30, 27, 29)"}, "[5]": {"details": "subgroup 1 only (patients 21, 22, 31)"}}}
{"smiles": "CC(C)c1cc(C(=O)N2Cc3ccc(CN4CCN(C)CC4)cc3C2)c(O)cc1O", "note": "[onalespib]", "values": [{"measurement": "urinary drug excretion", "setting": "[1]; 24 h after drug administration", "value": "< 10", "unit": "%"}, {"measurement": "plasma accumulation of drug with repeated dosing", "setting": "[1]; day 1 vs day 15 of cycle 1", "value": "no significant plasma accumulation"}, {"measurement": "plasma exposure to drug (AUC) versus dose", "setting": "[1]; doses 20–210 mg/m^2", "value": "proportional to dose"}, {"measurement": "half-life", "setting": "[1]; human, plasma, intravenous", "value": "~8", "unit": "h"}, {"measurement": "recommended phase 2 dose (RP2D)", "setting": "[2]", "value": 160, "unit": "mg/m^2/dose"}, {"measurement": "induction of Hsp70 mRNA following treatment", "setting": "Hsp70 mRNA", "value": "> 1.5", "unit": "fold"}, {"measurement": "induction of Hsp27 mRNA following treatment", "setting": "Hsp27 mRNA", "value": "> 2", "unit": "fold"}, {"measurement": "patients with visual disturbances", "setting": "patients; 120 mg/m^2/dose twice weekly", "value": "10 of 13"}, {"measurement": "maximum-tolerated-dose", "setting": "patients; twice weekly dosing, days 1, 4, 8, 11, 15, 18 in 28 day cycles", "value": 120, "unit": "mg/m^2/dose"}, {"measurement": "tumor growth inhibition, QDx2/week versus other schedules", "setting": "human xenograft models", "value": "consistently greater tumor growth inhibition"}, {"measurement": "Kd", "setting": "Hsp90", "value": 0.71, "unit": "nM"}, {"measurement": "tumor responses", "setting": "advanced solid tumors; 31 patients treated", "value": "No responses were observed"}, {"measurement": "longest time on study (one patient with hepatocellular carcinoma)", "setting": "advanced solid tumors; in vivo", "value": 6, "unit": "cycles"}, {"measurement": "Hsp70 protein expression in PBMCs at dose level 1", "setting": "Hsp70 protein; Patient #1, dose level 1 (20 mg/m^2)", "value": "no increase in Hsp70 expression"}, {"measurement": "Hsp70 protein expression in PBMC samples", "setting": "Hsp70 protein; patients at dose levels 2 through 5 (RP2D)", "value": "increased Hsp70 protein expression"}, {"measurement": "within-patient expression changes of 210 client proteins", "setting": "Hsp90 client proteins; 9 patients, RP2D, baseline vs cycle 1 day 16 or 17", "value": "no proteins with statistically significant changes"}, {"measurement": "CHK2, mean log2-normalized expression change: group 1", "setting": "Hsp90 client proteins; [3]", "value": 1.0062}, {"measurement": "MAP2K2, mean log2-normalized expression change: group 1", "setting": "Hsp90 client proteins; [3]", "value": "−0.2937"}, {"measurement": "PRAS, mean log2-normalized expression change: group 1", "setting": "Hsp90 client proteins; [3]", "value": 0.3038}, {"measurement": "RAB11A/B, mean log2-normalized expression change: group 1", "setting": "Hsp90 client proteins; [3]", "value": "−0.5853"}, {"measurement": "Raf-1, mean log2-normalized expression change: group 1", "setting": "Hsp90 client proteins; [3]", "value": "−0.2670"}, {"measurement": "STAT3, mean log2-normalized expression change: group 1", "setting": "Hsp90 client proteins; [3]", "value": "−0.6103"}, {"measurement": "STAT5A, mean log2-normalized expression change: group 1", "setting": "Hsp90 client proteins; [3]", "value": 0.5016}, {"measurement": "c-Src, mean log2-normalized expression change: group 1", "setting": "Hsp90 client proteins; [3]", "value": "−0.5997"}, {"measurement": "eEF-2 kinase, mean log2-normalized expression change: group 1", "setting": "Hsp90 client proteins; [3]", "value": 0.9679}, {"measurement": "serpin E1, mean log2-normalized expression change: group 1", "setting": "Hsp90 client proteins; [3]", "value": "−3.0031"}, {"measurement": "CHK2, mean log2-normalized expression change: group 2", "setting": "Hsp90 client proteins; [4]", "value": 0.1233}, {"measurement": "MAP2K2, mean log2-normalized expression change: group 2", "setting": "Hsp90 client proteins; [4]", "value": 0.1770}, {"measurement": "PRAS, mean log2-normalized expression change: group 2", "setting": "Hsp90 client proteins; [4]", "value": "−0.1004"}, {"measurement": "RAB11A/B, mean log2-normalized expression change: group 2", "setting": "Hsp90 client proteins; [4]", "value": 0.0826}, {"measurement": "Raf-1, mean log2-normalized expression change: group 2", "setting": "Hsp90 client proteins; [4]", "value": "−0.0855"}, {"measurement": "STAT3, mean log2-normalized expression change: group 2", "setting": "Hsp90 client proteins; [4]", "value": 0.0176}, {"measurement": "STAT5A, mean log2-normalized expression change: group 2", "setting": "Hsp90 client proteins; [4]", "value": "−0.0725"}, {"measurement": "c-Src, mean log2-normalized expression change: group 2", "setting": "Hsp90 client proteins; [4]", "value": "−0.0664"}, {"measurement": "eEF-2 kinase, mean log2-normalized expression change: group 2", "setting": "Hsp90 client proteins; [4]", "value": "−0.0370"}, {"measurement": "serpin E1, mean log2-normalized expression change: group 2", "setting": "Hsp90 client proteins; [4]", "value": 0.2094}, {"measurement": "decrease in CHK1 phosphorylation after treatment", "setting": "Hsp90 client proteins; [5]", "value": "> 2", "unit": "fold"}, {"measurement": "decrease in CHK2 phosphorylation after treatment", "setting": "Hsp90 client proteins; [5]", "value": "> 2", "unit": "fold"}]}
